# According to patent publication US12338266B2 (GENETIC S.P.A., priority 2019, dated 2025):
# “Also recorded” adds a separate entry of the source.
# Key:
# [1] = biological target: T1, glucocorticoid receptor (Homo sapiens, UniProt P04150); conditions: higher than the parent compound; cited from earlier work
# T1 sequence (P04150 1-777): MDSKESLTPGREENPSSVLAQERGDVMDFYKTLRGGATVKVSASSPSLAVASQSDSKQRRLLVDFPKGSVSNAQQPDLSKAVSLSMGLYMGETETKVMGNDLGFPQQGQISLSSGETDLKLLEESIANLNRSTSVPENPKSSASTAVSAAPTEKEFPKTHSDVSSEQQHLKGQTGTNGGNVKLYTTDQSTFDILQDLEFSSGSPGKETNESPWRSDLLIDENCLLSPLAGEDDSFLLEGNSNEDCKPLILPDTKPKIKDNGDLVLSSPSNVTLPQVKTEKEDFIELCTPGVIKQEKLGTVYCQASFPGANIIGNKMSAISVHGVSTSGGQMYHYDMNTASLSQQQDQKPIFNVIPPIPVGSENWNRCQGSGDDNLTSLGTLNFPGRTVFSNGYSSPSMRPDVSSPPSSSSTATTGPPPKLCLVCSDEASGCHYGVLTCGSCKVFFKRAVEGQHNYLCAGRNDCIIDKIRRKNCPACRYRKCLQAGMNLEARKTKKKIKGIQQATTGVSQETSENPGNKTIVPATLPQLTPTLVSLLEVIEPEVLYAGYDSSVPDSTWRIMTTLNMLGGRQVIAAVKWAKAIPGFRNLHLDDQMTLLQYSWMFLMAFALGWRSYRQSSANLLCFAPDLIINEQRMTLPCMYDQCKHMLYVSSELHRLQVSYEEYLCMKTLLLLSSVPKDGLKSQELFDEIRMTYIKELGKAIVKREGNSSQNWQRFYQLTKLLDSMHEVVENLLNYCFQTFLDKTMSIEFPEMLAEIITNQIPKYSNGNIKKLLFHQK
# [2] = 10 mg orally once daily at bedtime; cited from earlier work
# [3] = system: mice with OVA-induced allergic asthma; assay: Plasma IgE levels by ELISA in OVA-sensitized mice (Protocol-1); type: in vivo, Balb/c mice; conditions: 1 mg/kg i.p.; FIG. 6C, 7C
# Description: Balb/c mice (8-9 weeks old, Charles River, Calco, Italy) were housed in the animal care facility at the Department of Pharmacy of the University of Naples. Italy in a controlled environment (temperature 21±2° C. and humidity 60±10%) and provided with standard rodent chow and water. All animals were allowed to acclimate for four days prior to experiments and were subjected to 12 h light-12 h dark schedule. Each mouse was assigned an identity number and randomtzed to different groups so that all experiments were carried out in a blinded manner. The experimental procedures were approved by the Italian Ministry according to International and National law and policies (EU Directive 2010/63/EU and Italian DL 26/2014 for animal experiments, ARRIVE guidelines and the Basel declaration including the 3R concept). Animal studies are reported in compliance with the ARRIVE guidelines. Balb/c mice is the most widely mouse strain used to study asthma-like features in vivo and to investigate the undedying molecular and cellular mechanisms of allergen sensitization. Mice were treated subcutaneously (s.c.) with 0.4 mL (100 μg) of ovalbumin (OVA) complexed with alum (13 mg mL^−1) (OVA group) at day 0 and 7. Chicken egg-white ovalbumin (OVA: grade V. cat. A5503, Sigma Chemical Co., St. Louis, MO) was dissolved in sterile phosphate buffered saline (PBS) solution (250 μg/1 ml) and Al(OH)3 was added (at 13 mg/ml). This mix was used to induce the allergic sensitization of the animals by subcutaneous injection. OVA was dissolved at 3% in sterile PBS solution and this solution was nebulized (as the immunological challenges). At day 21 mice were exposed to OVA challenge for three days and then sacrificed. This experimental procedure induces in the mice an increase in plasma IgE levels and this effect is by itself sufficient to induce a significant increase in bronchial hyper-responsiveness and pulmonary inflammation, typical hallmarks of asthma. A group of animals was treated s.c. with saline (vehicle group). […] Animals were killed at selected time points by overdose of enflurane and bronchi and blood collected.
# Blood was collected by intracardiac puncture using citrate as anticoagulant. Plasma was obtained by centrifugation at 800×g at 4′C for 10 minutes and immediately frozen at −80° C. Total IgE levels were measured by means of ELISA using matched antibody pairs (BD Biosciences Pharmingen San Jose, Calif.).
# [4] = in vivo; cited from earlier work
# [5] = intranasal administration at recommended doses; cited from earlier work
# [6] = system: mice with OVA-induced allergic asthma; assay: Total and differential leukocyte counts in BAL fluid (Protocol-2); type: in vivo, Balb/c mice; conditions: 4 weeks; for BAL eosinophils (OVA-induced increase): 100 nmol/animal/day intranasal, FIG. 10
# Description: (§1) Male Balb/c SPF mice (26*2 g, 6 week-old) were purchased from the animal house facilities at the Faculty of Medicine (University of Sāo Paulo, Brazil). They were group-housed in a temperature-controlled room at 22° C. with a 12/12-hour light/dark cycle and allowed free access to food and water. The study is in agreement with the Ethical Principles for Animal Research established by the Brazilian College for Animal Experimentation (COBEA). According to the internal laboratory rules, euthanasia will be performed if severe distress related to the test agents developed during the experiment. Mice were sensitized with two subcutaneous injections of 0.2 ml of OVA/Al(OH)3, with an interval of 7 days (Sham animals received the Al(OH)3 suspension in PBS with no OVA). Chicken egg-white ovalbumin (OVA; grade V, cat. A5503, Sigma Chemical Co., St. Louis, Mo.) was dissolved in sterile phosphate buffered saline (PBS) solution (50 μg/ml) and Al(OH)3 was added (at 8 mg/ml). This mix was used to induce the allergic sensitization of the animals by subcutaneous injection. OVA was dissolved at 1% in sterile PBS solution and this solution was nebulized (as the immunological challenges). Seven days after the second sensitization (i.e., 3rd week), the animals were nebulized twice a week with the 1% OVA solution (Sham and untreated OVA groups were nebulized with PBS) during 20 minutes for the next 4 weeks. Thirty minutes before the challenges (OVA nebulization) and daily during the next 4 weeks, mice were intra-nasally treated (10 μl/animal as 5 μl/nostril) with the respective compounds/vehicle. […] Animals were killed at selected time points by overdose of enflurane and BAL and blood collected.
# After Penh evaluation, the mice were anesthetized with inhaled isofluorane (5% v/v in O2) and blood samples were collected from the descending abdominal aorta. The mice were then euthanized by exsanguination and bronchoalveolar lavage (BAL) was performed by exposing and cannulating the trachea with a polyethylene tube (1 mm outer diameter) connected to a syringe. The lungs were washed by flushing 300 μL of heparin-containing PBS solution (20 UI/mL). The retrieved BAL lavage aliquots were obtained and the same procedure was repeated four additional times. The samples were centrifuged (1000 g for 10 min) and the cell pellet was resuspended in 200 μL of PBS solution, Total cell counts were determined using a Neubauer chamber, and differential counting was carried out in cytospin (Fanem Mod 2400; Sāo Paulo, Brazil) preparations stained with May-Grünwald dye. Leukocytes were classified based on morphological criteria.
# [7] = system: mice with OVA-induced allergic asthma; assay: Lung hyperreactivity / Penh by whole body plethysmography (Protocol-2); type: in vivo, Balb/c mice; conditions: for basal Penh measurement (non-challenged with methacholine): FIG. 9B
# Description: as §1
# Airway responsiveness in conscious, spontaneously breathing animals was measured at the end of the 6th week (i.e., after 4 weeks OVA challenges+treatments), 24 h after the last OVA/PBS challenge via whole body plethysmography (Buxco Europe Ltd, Winchester, UK). Experiments were carried out in a quiet room by an investigator who was unaware of the nature of treatments. Aerosolized saline (50 μl/mouse during 60 s) and then the muscarinic agonist metacholine (MCh) at increasing concentrations (3.12, 6.25, 12.5 and 25.0 mg/ml in PBS) was nebulized through an inlet of the main chamber for 3 min each to induce bronchoconstriction and readings were taken and averaged for 6 min following each nebulization. After 20 min. the baseline values usually returned at the end of this period. Enhanced pause (Penh) was measured as an indicator of bronchoconstriction and consequent increase of airway resistance as: Penh=[(expiration time/relaxation time)−1][…].
smiles,measurement,setting,value
"C[C@]12C=CC(=O)C=C1CC[C@@H]1[C@@H]2[C@@H](O)C[C@@]2(C)[C@H]1C[C@H]1O[C@@H](C3CCCCC3)O[C@]12C(=O)CO [Des-ciclesonide, C21-desisobutyryl-ciclesonide]",affinity for the glucocorticoid receptor relative to the parent compound (ciclesonide),[1],120 times
"CC(C)(O)c1ccccc1CC[C@@H](SCC1(CC(=O)[O-])CC1)c1cccc(/C=C/c2ccc3ccc(Cl)cc3n2)c1.[Na+] [Montelukast sodium, (R,E)-2-(1-((1-(3-(2-(7-chloroquinolin-2-yl)vinyl)phenyl)-3-(2-(2-hydroxypropan-2-yl)phenyl)propylthio)-methyl)cyclopropyl)acetic acid monosodium salt]","variables of asthma control (FEV1, daytime and night time symptom scores, as-needed β-agonist use)",[2],improvement in variables of asthma control
"CC(C)C(=O)OCC(=O)[C@@]12O[C@H](C3CCCCC3)O[C@@H]1C[C@H]1[C@@H]3CCC4=CC(=O)C=C[C@]4(C)[C@H]3[C@@H](O)C[C@@]12C [ciclesonide, (11β,16α)-16,17-[[(R)-cyclohexylmethylene]bis(oxy)]-11-hydroxy-21-(2-methyl-1-oxopropoxy)pregna-1,4-diene-3,20-dione]",allergen induced plasma IgE increase,[3],significantly inhibited allergen induced IgE increase
same,cortisol suppression,[4],comparable with placebo
same,serum concentrations of ciclesonide,[5],negligible serum concentrations
same,BAL eosinophils (OVA-induced increase),[6],significantly reduced
same,BAL eosinophils (OVA-induced increase),[6]; listed as Ciclesonide,significantly reduced this increase
same,"airway responsiveness, Penh (basal, methacholine Emax and AUC)","[7]; 100 nmol/day/animal intranasal, daily for 4 weeks, FIG. 8A-D",Significant reduction of this response; also recorded: significantly reduced
"CC(C)(O)c1ccccc1CC[C@@H](SCC1(CC(=O)O)CC1)c1cccc(/C=C/c2ccc3ccc(Cl)cc3n2)c1 [montelukast, (R,E)-2-(1-((1-(3-(2-(7-chloroquinolin-2-yl)vinyl)phenyl)-3-(2-(2-hydroxypropan-2-yl)phenyl)propylthio)-methyl)cyclopropyl)acetic acid]",allergen induced plasma IgE increase,[3],did not affect IgE
same,BAL eosinophils / eosinophil recruitment to the lungs,"[6]; 10 nmol/animal/day intranasal, FIG. 11",significantly reduced; also recorded: significant inhibitory effects on eosinophil recruitment to the lungs
same,basal Penh measurement (non-challenged with methacholine),"[7]; 10 nmol/animal/day intranasal, daily for 4 weeks",significantly reduced the basal Penh measurement
same,basal Penh measurement (non-challenged with methacholine),"[7]; 10 nmol/animal/day intranasal, daily for 4 weeks, listed as Montelukast",slightly decrease the basal (non-challenged with methacholine) response
same,"Penh parameters following methacholine challenge (Emax, AUC)","[7]; 10 nmol/animal/day intranasal, FIG. 9C-D",did not affect the parameters measured following methacholine challenge
same,direct effects on lung function,[7]; 10 nmol/day/animal intranasal,negligible direct effects on lung function
